Here are results for 6 compounds from patent publication US5270041A, “Sterols, their fatty acid esters and glucosides; processes for their preparation; spontaneously dispersible agents containing these compounds, and their use for treatment of tumors” (Marigen S.A., priority 1989, dated 1993).

Assay [1] relates to TSA: murine adenocarcinoma (spontaneous cancer of the breast). Description: In-vitro plaque assay of MARIGENOL microemulsions, greatest cytotoxic dilution, TSA. Particulars: cell line TSA; 5 h; microemulsion 0,1%. Format: cell-based. The procedure:
A biological assay system using microtiter plates and serial dilutions has been developed Batches of 10^4 tumour cells per ml were set up in culture medium RPMI 1640 and […] with 10% of fetal calf serum (GIBCO); the cells are spread at a density low enough to enable them to grow during the assay in so-called non-confluent monolayers. Samples are added after 6-24 hours, with 100 μl per row, to which 100 μl of medium are added in the first well. Half of this mixture is withdrawn, transferred into the next well and again treated with 100 μl of medium, etc.
In the plaque assay, the samples are incubated at 37° C. for 3-5 days under 31/2% of CO2. They are then stained and fixed using 0.1% crystal violet (Fluka, Buchs) in a solution of 70% of methanol, 1% of formaldehyde and 29% water. The samples are evaluated under the microscope, magnification 300×. The greatest cytotoxic dilution is determined. The samples can also be evaluated quantitatively by means of scanning and absorption measurement in a spectrophotometer.

A further assay concerns TSA adenocarcinoma. Description: In-vivo assay on mice, TSA tumour growth, MARIGENOL 0,1% microemulsions. The note with it: 0,1% microemulsion. Also on record: species or system mice (Balb-c); key: + swelling. The procedure:
The in-vivo assays were carried out on female mice. Old Balb-c strain animals of 28-32 g body weight were used (Charles River, Milan). Used as comparison standards throughout was the spontaneous adenocarcinoma TSA, a murine tumour cell line which was provided regularly by Prof. Guido Forni, Istituto di Microbiologia, Universita degli Studi di Torino, Scuola di Medicina.
A series of groups of 5 test animals each were fed with ordinary test feed (NAFAG complete feed No. 850, from Nahr- und Futtermittel AG, Gossau).
14 days after the introduction (average latency period), the newly-formed tissue is palpitated; ditto after 21 and after 28 days, and in some cases 35, days. The mean of the length and width of the solid, distinct tumour mass under the skin is determined (postmortem recheck).
To test the activity of the preparations in live organisms, the remaining test animals receive a daily dose of 0.25 ml of a test preparation by tube, in addition to the ordinary test feed. After an adaptation period of 5-7 days, the tumour is introduced, likewise inguinally, with 80-100'000 TSA units, as for the controls. It takes in every single case, in the group and on repetition, thus permitting the statistical groups to be kept to a relatively low number.
The experimental set-up is the same as in the case of gavage. Instead of using a tube, the preparations to be tested are administered inguinally by injection (right flank, subcutaneously), at a rate of 0.25 ml 3 times per week.

With `CCCCCCCCCCCCCCCC(=O)O[C@H]1CC[C@@]2(C)C(=CC[C@H]3[C@@H]4CC[C@H]([C@H](C)/C=C/[C@@H](CC)C(C)C)[C@@]4(C)CC[C@@H]32)C1` [C 16:0 STIGMASTEROL, STIGMASTEROL-PALMITATE], the “Active in dilution to 1:” value in assay [1] is reported as 80 1:.
In the case of `CC/C=C\C/C=C\C/C=C\CCCCCCCC(=O)O[C@H]1CC[C@@]2(C)C(=CC[C@H]3[C@@H]4CC[C@H]([C@H](C)CC[C@@H](CC)C(C)C)[C@@]4(C)CC[C@@H]32)C1` [C 18:3-SITOSTEROL, stigmast-5-en-3-ol-9,12,15-octadecatrienoate], the “Tumor mass Σ1/2 L + B” value in the assay with TSA adenocarcinoma (TSA after 14 days) is reported as “+”; in the assay on TSA adenocarcinoma (TSA after 21 days), “+”; in the assay on TSA adenocarcinoma (TSA after 28 days) it was 1 mm.
Consider `CCCCC/C=C\C/C=C\CCCCCCCC(=O)O[C@H]1CC[C@@]2(C)C(=CC[C@H]3[C@@H]4CC[C@H]([C@H](C)CC[C@@H](CC)C(C)C)[C@@]4(C)CC[C@@H]32)C1` [β-Sitosterol-linoleate, stigmast-5-en-3-ol-9,12-octadecadienoate], for which the “Tumor mass Σ1/2 L + B” value with TSA adenocarcinoma (TSA after 14 days) is reported as 0 mm; in the assay with TSA adenocarcinoma (TSA after 21 days), “+”; with TSA adenocarcinoma (TSA after 28 days) it was 1 mm.
In the case of “stigmast-5-en 3-ol-dodecenoate [C 12:1-SITOSTEROL]”, in assay [1], the “Active in dilution to 1:” value was 640 1:. Further, the figures for the “Tumor mass Σ1/2 L + B” value with TSA adenocarcinoma (TSA after 14 days), in the assay with TSA adenocarcinoma (TSA after 21 days) and in the assay on TSA adenocarcinoma (TSA after 28 days) were 1 mm, 0 mm and 2 mm, respectively.
As to “stigmasta-5,22-dien-3-ol-doiecenoate [Stigmasterol-dodecenoate]”, the “Tumor mass Σ1/2 L + B” value with TSA adenocarcinoma (TSA after 14 days) is listed as 0 mm; with TSA adenocarcinoma (TSA after 21 days) it was 0 mm; with TSA adenocarcinoma (TSA after 28 days) it was 2 mm.
In the case of “β-SITOSTEROLUNDECENOATE [C 11:1-SITOSTEROL]”, the “Active in dilution to 1:” value in assay [1] was 40 1:.
